{"source": "patent US20220354949A1", "about": "“NOVEL COMPOUNDS” (XENIOPRO GmbH, priority 2018, published 2022)", "type_in_all_cases": "cell-based", "key": {"[1]": {"tested_on": "TT cells (human medullary thyroid carcinoma cells)", "assay": "Proliferation assay (alamarBlue) with TT cells", "conditions": "compound at 20 μM", "source_text": "(§1) The antiproliferative activities of compounds falling under formula (Ia), (Ib) and (Ic), respectively, were investigated on cells or cell lines originating from a disorder of the haematopoietic system, including the myeloid cell compartment and the lymphoid cell compartment (T-cells and B-cells), the neuroendocrine system, the cervix, the breast, the ovaries, the lung, the gastrointestinal tract, and the mucosal epithelium, as well as from the skin epithelium and from the muscle. To this end, HL-60 cells, NB-4 cells, HH cells, RPMI-8402 cells, TANOUE cells, TT cells, HeLa cells, MDA-MB-231 cells, FU-OV-1 cells, LOU-NH91 cells, 23132/87 cells, CAL-27 cells, BHY cells, SCC-25 cells, A-431 cells, human primary epidermal keratinocytes (HPEK), and C2C12 cells were seeded into 96-well plates suitable for fluorescence assays (CORNING #3598) at following initial cell numbers: 1000 cells per well for HL-60; 1000 cells per well for NB-4; 5000 cells per well for HH; 5000 cells per well for RPMI-8402; 1500 cells per well for TANOUE; 9000 cells per well for TT; 2000 cells per well for HeLa; 3000 cells per well for MDA-MB-231; 3000 cells per well for FU-OV-1; 4000 cells per well for LOU-NH91; 2000 cells per well for 23132/87; 2000 cells per well for CAL-27; 1500 cells per well for BHY; 1500 cells per well for SCC-25; 700 cells per well for A-431; 1000 cells per well for HPEK; 500 cells per well for C2C12. The cells were treated with compounds at indicated final concentrations (diluted from the 1000× stock-solutions in DMSO to a final DMSO concentration of 0.1% v/v in H2O (Water For Injection, WFI, Fisherscientific #10378939)) or with the empty carrier DMSO at 0.1% v/v as control for 5 days. At day 5 after starting the treatments the cells were subjected to the alamarBlue® Proliferation Assay (Bio-Rad Serotec GmbH, BUF012B) according to the protocol of the manufacturer. The readout was taken with a multi-well plate-reader in the fluorescence mode with applying a filter for excitation at 560 nm (band width 10 nm) and for emission at 590 nm (band width 10 nm). Control treatments for growth inhibition with commercial compounds such as Methotrexate (MTREX) and Resveratrol (RES) were included on every plate. Some of the test compounds of the present invention were obtained and applied as their salts. According cases are indicated in the column “Specification” in Table 55 to Table 92 and by their sum formula in Table 93.\n(§2) The assays were performed in duplicate or more replicates of independent single experiments each containing a six-fold replicate for every condition. For every individual plate, the measured fluorescence intensity values of the conditions with compound treatment were normalized against the corresponding equally weighted arithmetic mean of the fluorescence intensity values of the six DMSO treated control wells in order to obtain the relative values to a baseline level of 1.0.\n(§3) Two independent outlier analyses were performed according to the methods by Peirce and Chauvenet (Ross, Journal of Engineering Technology 2003, 1-12). Outliers confirmed by at least one of the methods were excluded from the calculations but not more than one value out of six per compound within a single experiment. The weighted arithmetic mean (here abbreviated as AVEw) for each compound was calculated from the normalized values over all independent replicates of the single experiments comprising the six replicates each. The corresponding standard deviation for the weighted arithmetic mean was calculated according to the method described by Bronstein et al. (Bronstein, Semendjajew, Musiol, Müihlig, Taschenbuch der Mathematik, 5th edition 2001 (German), publisher: Verlag Harri Deutsch, Frankfurt am Main and Thun) and was combined with the Gauß' error propagation associated with the performed calculation for the normalization. The resulting standard deviation is herein referred to as “combined standard deviation”. […]"}, "[2]": {"tested_on": "human epidermal keratinocyte progenitors (HPEKp, pooled)", "assay": "Proliferation assay (alamarBlue) with HPEKp cells", "conditions": "control at 20 μM", "source_text": "(§4) The antiproliferative activities of compounds falling under formula (Ia), (Ib) and (Ic), respectively, were investigated on cells or cell lines originating from a disorder of the haematopoietic system, including the myeloid cell compartment and the lymphoid cell compartment (T-cells and B-cells), the neuroendocrine system, the cervix, the breast, the ovaries, the lung, the gastrointestinal tract, and the mucosal epithelium, as well as from the skin epithelium and from the muscle. To this end, HL-60 cells, NB-4 cells, HH cells, RPMI-8402 cells, TANOUE cells, TT cells, HeLa cells, MDA-MB-231 cells, FU-OV-1 cells, LOU-NH91 cells, 23132/87 cells, CAL-27 cells, BHY cells, SCC-25 cells, A-431 cells, human primary epidermal keratinocytes (HPEK), and C2C12 cells were seeded into 96-well plates suitable for fluorescence assays (CORNING #3598) at following initial cell numbers: 1000 cells per well for HL-60; 1000 cells per well for NB-4; 5000 cells per well for HH; 5000 cells per well for RPMI-8402; 1500 cells per well for TANOUE; 9000 cells per well for TT; 2000 cells per well for HeLa; 3000 cells per well for MDA-MB-231; 3000 cells per well for FU-OV-1; 4000 cells per well for LOU-NH91; 2000 cells per well for 23132/87; 2000 cells per well for CAL-27; 1500 cells per well for BHY; 1500 cells per well for SCC-25; 700 cells per well for A-431; 1000 cells per well for HPEK; 500 cells per well for C2C12. […] The readout was taken with a multi-well plate-reader in the fluorescence mode with applying a filter for excitation at 560 nm (band width 10 nm) and for emission at 590 nm (band width 10 nm). […]\nas §2, with “1.0. […]” for “1.0.”"}, "[3]": {"tested_on": "LOU-NH91 cells (human lung squamous cell carcinoma cells)", "assay": "Proliferation assay (alamarBlue) with LOU-NH91 cells", "conditions": "20 μM", "source_text": "as §1, §2, §3"}, "[4]": {"tested_on": "NB-4 cells (human acute promyelocytic leukemia cells)", "assay": "Proliferation assay (alamarBlue) with NB-4 cells", "conditions": "20 μM", "source_text": "as §1, §2, §3"}, "[5]": {"tested_on": "BHY cells (human oral squamous cell carcinoma cells)", "assay": "Proliferation assay (alamarBlue) with BHY cells", "parameters": "key: fluorescence relative to mean of DMSO control wells = 1.0", "conditions": "20 μM", "source_text": "as §1, §2, §3"}, "[6]": {"tested_on": "HL-60 cells (human acute myeloid leukemia cells)", "assay": "Proliferation assay (alamarBlue) with HL-60 cells", "conditions": "20 μM", "source_text": "as §1, §2, §3"}, "[7]": {"tested_on": "MDA-MB-231 cells (human breast carcinoma cells)", "assay": "Proliferation assay (alamarBlue) with MDA-MB-231 cells", "conditions": "compound at 20 μM", "source_text": "as §1, §2, §3"}, "[8]": {"tested_on": "SCC-25 cells (human tongue squamous cell carcinoma cells)", "assay": "Proliferation assay (alamarBlue) with SCC-25 cells", "conditions": "20 μM", "source_text": "as §1, §2, §3"}, "[9]": {"tested_on": "HH cells (human cutaneous T-cell lymphoma cells)", "assay": "Proliferation assay (alamarBlue) with HH cells", "conditions": "20 μM", "source_text": "as §1, §2, §3"}, "[10]": {"tested_on": "CAL-27 cells (human tongue squamous cell carcinoma cells)", "assay": "Proliferation assay (alamarBlue) with CAL-27 cells", "conditions": "20 μM", "source_text": "as §1, §2, §3"}, "[11]": {"tested_on": "C2C12 cells (murine myoblast cells)", "assay": "Proliferation assay (alamarBlue) with C2C12 cells", "conditions": "compounds and controls at 20 μM", "source_text": "as §4\nas §2, with “1.0. […]” for “1.0.”"}, "[12]": {"tested_on": "FU-OV-1 cells (human ovarian carcinoma cells)", "assay": "Proliferation assay (alamarBlue) with FU-OV-1 cells", "conditions": "compound at 20 μM", "source_text": "as §1, §2, §3"}}, "data": [{"smiles": "CN(Cc1cnc2nc(N)nc(N)c2n1)c1ccc(C(=O)N[C@@H](CCC(=O)O)C(=O)O)cc1", "note": "[MTREX, Methotrexate]", "values": [{"measurement": "Activity Range: weighted arithmetic mean (AVEw) of normalized fluorescence intensity relative to DMSO basis level 1.0", "setting": "[1]; Table 65 (novel compounds)", "result": "1.0 ± 0.0"}, {"measurement": "Activity Range: weighted arithmetic mean (AVEw) of normalized fluorescence intensity relative to DMSO basis level 1.0", "setting": "[1]; Table 66 (compounds of PCT/EP2018/054686)", "result": "1 ± 0.0"}, {"measurement": "Activity Range: weighted arithmetic mean (AVEw) of normalized fluorescence intensity, relative to DMSO basis level of 1.0", "setting": "[2]", "result": "0.9 ± 0.0"}, {"measurement": "Activity Range (weighted arithmetic mean AVEw of normalized fluorescence intensity, relative to DMSO basis level 1.0)", "setting": "[3]; Table 73 (novel compounds)", "result": "0.5 ± 0.1"}, {"measurement": "Activity Range (weighted arithmetic mean AVEw of normalized fluorescence intensity, relative to DMSO basis level 1.0)", "setting": "[3]; Table 74 (compounds disclosed in PCT/EP2018/054686)", "result": "0.5 ± 0.1"}, {"measurement": "Activity Range: weighted arithmetic mean (AVEw) of normalized fluorescence intensity, proliferation assay with NB-4 cells", "setting": "[4]; relative to DMSO basis level 1.0, Table 57 (novel compounds)", "result": "0.1 ± 0.0"}, {"measurement": "Activity Range: weighted arithmetic mean (AVEw) of normalized fluorescence intensity, proliferation assay with NB-4 cells", "setting": "[4]; relative to DMSO basis level 1.0, Table 58 (compounds disclosed in PCT/EP2018/054686)", "result": "0.1 ± 0.0"}, {"measurement": "Activity Range (weighted arithmetic mean AVEw of normalized fluorescence intensity, relative to DMSO basis level 1.0)", "setting": "[5]; Table 79 (novel compounds)", "result": "0.3 ± 0.0"}, {"measurement": "Activity Range (weighted arithmetic mean AVEw of normalized fluorescence intensity, relative to DMSO basis level 1.0)", "setting": "[5]; Table 80 (compounds disclosed in PCT/EP2018/054686)", "result": "0.3 ± 0.0"}, {"measurement": "Activity Range (weighted arithmetic mean AVEw of normalized fluorescence intensity, relative to DMSO basis level 1.0)", "setting": "[5]; Table 81 (compounds disclosed in PCT/EP2018/054686)", "result": "0.3 ± 0.0"}, {"measurement": "Activity Range: weighted arithmetic mean (AVEw) of normalized fluorescence intensity, proliferation assay with HL-60 cells", "setting": "[6]; relative to DMSO basis level 1.0, Table 55 (novel compounds)", "result": "0.1 ± 0.1"}, {"measurement": "Activity Range: weighted arithmetic mean (AVEw) of normalized fluorescence intensity, proliferation assay with HL-60 cells", "setting": "[6]; relative to DMSO basis level 1.0, Table 56 (compounds disclosed in PCT/EP2018/054686)", "result": "0.1 ± 0.1"}, {"measurement": "activity at 20 µM", "setting": "[7]; Homo sapiens, Table 69 (novel compounds), read-out: Activity Range: weighted arithmetic mean (AVEw) of normalized fluorescence intensity relative to DMSO basis level 1.0", "result": 60, "unit": "%"}, {"measurement": "Activity Range: weighted arithmetic mean (AVEw) of normalized fluorescence intensity relative to DMSO basis level 1.0", "setting": "[7]; Table 70 (compounds of PCT/EP2018/054686)", "result": "0.6 ± 0.0"}, {"measurement": "Activity Range (weighted arithmetic mean AVEw of normalized fluorescence intensity, relative to DMSO basis level 1.0)", "setting": "[8]; Table 82 (novel compounds)", "result": "0.5 ± 0.1"}, {"measurement": "Activity Range (weighted arithmetic mean AVEw of normalized fluorescence intensity, relative to DMSO basis level 1.0)", "setting": "[8]; Table 83 (compounds disclosed in PCT/EP2018/054686)", "result": "0.5 ± 0.1"}, {"measurement": "Activity Range: weighted arithmetic mean (AVEw) of normalized fluorescence intensity, proliferation assay with HH cells", "setting": "[9]; relative to DMSO basis level 1.0, Table 59 (novel compounds)", "result": "0.4 ± 0.1"}, {"measurement": "Activity Range: weighted arithmetic mean (AVEw) of normalized fluorescence intensity, proliferation assay with HH cells", "setting": "[9]; relative to DMSO basis level 1.0, Table 60 (compounds disclosed in PCT/EP2018/054686)", "result": "0.4 ± 0.1"}, {"measurement": "Activity Range (weighted arithmetic mean AVEw of normalized fluorescence intensity, relative to DMSO basis level 1.0)", "setting": "[10]; Table 77 (novel compounds)", "result": "0.1 ± 0.0"}, {"measurement": "Activity Range (weighted arithmetic mean AVEw of normalized fluorescence intensity, relative to DMSO basis level 1.0)", "setting": "[10]; Table 78 (compounds disclosed in PCT/EP2018/054686)", "result": "0.1 ± 0.0"}, {"measurement": "Activity Range: weighted arithmetic mean (AVEw) of normalized fluorescence intensity, relative to DMSO basis level of 1.0", "setting": "[11]", "result": "0.1 ± 0.0"}, {"measurement": "Activity Range: weighted arithmetic mean (AVEw) of normalized fluorescence intensity relative to DMSO basis level 1.0", "setting": "[12]; Table 71 (novel compounds)", "result": "1.0 ± 0.0"}, {"measurement": "Activity Range: weighted arithmetic mean (AVEw) of normalized fluorescence intensity relative to DMSO basis level 1.0", "setting": "[12]; Table 72 (compounds of PCT/EP2018/054686)", "result": "1.0 ± 0.0"}]}]}
